Article PMC8534050, “Discovery of a Potent and Highly Isoform-Selective Inhibitor of the Neglected Ribosomal Protein S6 Kinase Beta 2 (S6K2)” (Cancers, 2021)
pIC50, pKi: −log10 of the molar value. One block for each compound: values may come before it.

How the values were obtained:
[1] = biological target: T1, S6K2 (Homo sapiens, UniProt Q9UBS0); test: HotSpot kinase assay (Reaction Biology); assay type: biochemical; conditions: apparent IC50; five-point; compound 2 triplicate, ± standard deviation
T1 construct: purchased Reaction Biology Corp
Protocol: The provided IC50 values were measured using the HotSpot^TM Kinase Profiling assay and conducted at Reaction Biology Corp. in their facilities in Malvern, PA, USA.

[2] = biological target: T2, STK10 (Homo sapiens, UniProt O94804); test: DSF thermal shift assay; assay type: binding; conditions: read-out: ΔTm
T2 construct: purchased in-house DSF (thermal shift) panel per Fedorov et al
Protocol: (§1) Differences in the melting temperature (ΔTm) were measured as described by Fedorov et al.. Purified proteins were buffered in 25 mM HEPES (pH 7.5), 500 mM NaCl and were assayed in a 384-well plate with a final protein concentration of 2 μM in 10 μL assay volume. Inhibitors were added to a final concentration of 10 μM using an ECHO 550 acoustic dispenser (Labcyte, San José, CA, USA). As a fluorescence probe, SYPRO-Orange (Molecular Probes, Eugene, OR, USA) was added in a 1:5000 dilution. Filters for excitation and emission were set to 465 nm and 590 nm, respectively. The temperature was increased from 25 °C with 3 °C/min to a final temperature of 95 °C, while scanning, using the QuantStudio5 (Applied Biosystems, Waltham, MA, USA). Data were analyzed through Boltzmann equation in the Protein Thermal Shift software (Applied Biosystems, Waltham, MA, USA). Samples were measured in technical duplicates.

[3] = biological target: T3, CAMK4 (Homo sapiens, UniProt Q16566); test: DSF thermal shift assay; assay type: binding; conditions: read-out: ΔTm
T3 construct: purchased in-house DSF (thermal shift) panel per Fedorov et al
Protocol: as §1

[4] = biological target: T4, PAK1 (Homo sapiens, UniProt Q13153); test: DSF thermal shift assay; assay type: binding; conditions: read-out: ΔTm
T4 construct: purchased in-house DSF (thermal shift) panel per Fedorov et al
Protocol: as §1

[5] = biological target: T5, STK3 (Homo sapiens, UniProt Q13188); test: DSF thermal shift assay; assay type: binding; conditions: read-out: ΔTm
T5 construct: purchased in-house DSF (thermal shift) panel per Fedorov et al
Protocol: as §1

[6] = biological target: T6, MAPK13 (Homo sapiens, UniProt O15264); test: DSF thermal shift assay; assay type: binding; conditions: read-out: ΔTm
T6 construct: purchased in-house DSF (thermal shift) panel per Fedorov et al
Protocol: as §1

[7] = biological target: T7, CAMKK2 (Homo sapiens, UniProt Q96RR4); test: DSF thermal shift assay; assay type: binding; conditions: read-out: ΔTm
T7 construct: purchased in-house DSF (thermal shift) panel per Fedorov et al
Protocol: as §1

[8] = biological target: T8, DAPK1 (Homo sapiens, UniProt P53355); test: DSF thermal shift assay; assay type: binding; conditions: read-out: ΔTm
T8 construct: purchased in-house DSF (thermal shift) panel per Fedorov et al
Protocol: as §1

[9] = biological target: T9, DCAMKL1 (Homo sapiens, UniProt O15075); test: DSF thermal shift assay; assay type: binding; conditions: read-out: ΔTm
T9 construct: purchased in-house DSF (thermal shift) panel per Fedorov et al
Protocol: as §1

[10] = biological target: T10, WNK1 (Homo sapiens, UniProt Q9H4A3); test: DSF thermal shift assay; assay type: binding; conditions: read-out: ΔTm
T10 construct: purchased in-house DSF (thermal shift) panel per Fedorov et al
T10 sequence (Q9H4A3 whole entry): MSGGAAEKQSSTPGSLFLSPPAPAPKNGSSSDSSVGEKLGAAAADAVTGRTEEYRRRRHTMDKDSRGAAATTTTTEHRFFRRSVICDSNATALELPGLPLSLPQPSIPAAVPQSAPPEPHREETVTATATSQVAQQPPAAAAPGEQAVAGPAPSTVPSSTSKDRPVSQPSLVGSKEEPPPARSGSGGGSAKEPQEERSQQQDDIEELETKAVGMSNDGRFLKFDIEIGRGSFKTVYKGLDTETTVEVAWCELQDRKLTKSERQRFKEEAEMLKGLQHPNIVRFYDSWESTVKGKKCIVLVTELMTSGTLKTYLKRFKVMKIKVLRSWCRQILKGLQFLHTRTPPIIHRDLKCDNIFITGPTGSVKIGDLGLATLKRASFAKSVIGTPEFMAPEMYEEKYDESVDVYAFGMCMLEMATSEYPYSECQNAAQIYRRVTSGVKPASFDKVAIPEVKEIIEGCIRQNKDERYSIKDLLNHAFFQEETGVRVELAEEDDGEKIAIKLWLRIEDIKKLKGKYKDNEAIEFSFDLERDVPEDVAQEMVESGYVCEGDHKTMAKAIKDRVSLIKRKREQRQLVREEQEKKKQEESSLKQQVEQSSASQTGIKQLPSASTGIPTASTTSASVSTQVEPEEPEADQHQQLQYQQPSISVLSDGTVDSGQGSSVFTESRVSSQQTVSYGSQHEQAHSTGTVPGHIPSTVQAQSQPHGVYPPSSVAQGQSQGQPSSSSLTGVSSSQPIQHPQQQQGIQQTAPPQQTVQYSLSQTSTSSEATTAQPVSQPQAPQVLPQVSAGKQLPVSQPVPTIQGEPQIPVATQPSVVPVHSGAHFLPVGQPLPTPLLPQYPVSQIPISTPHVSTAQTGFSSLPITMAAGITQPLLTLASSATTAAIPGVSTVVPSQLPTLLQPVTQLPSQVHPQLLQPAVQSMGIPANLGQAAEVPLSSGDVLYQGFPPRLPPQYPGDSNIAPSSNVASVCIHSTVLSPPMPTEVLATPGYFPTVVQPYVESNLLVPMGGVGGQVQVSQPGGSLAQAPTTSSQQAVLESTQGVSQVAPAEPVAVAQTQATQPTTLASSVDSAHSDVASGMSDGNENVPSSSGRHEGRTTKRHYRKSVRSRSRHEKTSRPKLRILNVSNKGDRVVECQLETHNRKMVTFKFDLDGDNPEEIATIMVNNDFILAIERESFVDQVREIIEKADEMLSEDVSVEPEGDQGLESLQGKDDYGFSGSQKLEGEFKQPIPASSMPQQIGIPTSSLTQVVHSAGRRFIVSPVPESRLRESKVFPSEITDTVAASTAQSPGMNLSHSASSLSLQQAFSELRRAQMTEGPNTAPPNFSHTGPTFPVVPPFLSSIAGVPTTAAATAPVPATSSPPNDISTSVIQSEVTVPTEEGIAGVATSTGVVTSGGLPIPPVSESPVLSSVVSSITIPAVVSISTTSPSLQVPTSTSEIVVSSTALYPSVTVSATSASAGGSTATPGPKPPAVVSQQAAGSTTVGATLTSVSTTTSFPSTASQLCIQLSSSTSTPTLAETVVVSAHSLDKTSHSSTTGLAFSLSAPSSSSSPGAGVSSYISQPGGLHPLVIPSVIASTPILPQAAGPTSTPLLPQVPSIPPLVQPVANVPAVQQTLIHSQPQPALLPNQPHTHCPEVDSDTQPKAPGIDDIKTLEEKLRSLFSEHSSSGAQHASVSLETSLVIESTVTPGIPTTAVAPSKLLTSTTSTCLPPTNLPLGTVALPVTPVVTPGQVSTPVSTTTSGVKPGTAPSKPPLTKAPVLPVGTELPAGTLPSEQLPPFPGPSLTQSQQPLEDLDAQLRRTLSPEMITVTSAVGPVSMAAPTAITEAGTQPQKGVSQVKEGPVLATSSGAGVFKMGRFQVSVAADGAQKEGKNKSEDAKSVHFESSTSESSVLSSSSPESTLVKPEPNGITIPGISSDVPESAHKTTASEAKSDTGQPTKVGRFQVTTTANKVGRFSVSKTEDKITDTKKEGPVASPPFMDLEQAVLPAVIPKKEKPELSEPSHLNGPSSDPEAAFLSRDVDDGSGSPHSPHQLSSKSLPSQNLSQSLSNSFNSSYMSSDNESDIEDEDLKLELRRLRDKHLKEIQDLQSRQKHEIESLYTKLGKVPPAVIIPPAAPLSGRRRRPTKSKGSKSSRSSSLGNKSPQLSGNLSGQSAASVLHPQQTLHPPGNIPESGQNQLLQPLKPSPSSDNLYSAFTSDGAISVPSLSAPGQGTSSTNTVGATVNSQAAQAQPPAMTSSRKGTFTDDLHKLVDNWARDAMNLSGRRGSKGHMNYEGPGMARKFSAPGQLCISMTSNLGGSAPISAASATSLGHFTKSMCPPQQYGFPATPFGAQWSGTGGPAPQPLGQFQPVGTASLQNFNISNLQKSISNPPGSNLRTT
Protocol: as §1

[11] = biological target: T11, STK39 (Homo sapiens, UniProt Q9UEW8); test: DSF thermal shift assay; assay type: binding; conditions: read-out: ΔTm
T11 construct: purchased in-house DSF (thermal shift) panel per Fedorov et al; IC50 follow-up at Reaction Biology Corp
Protocol: as §1

[12] = biological target: T12, PLK4 (Homo sapiens, UniProt O00444); test: DSF thermal shift assay; assay type: binding; conditions: read-out: ΔTm
T12 construct: purchased in-house DSF (thermal shift) panel per Fedorov et al
Protocol: as §1

[13] = biological target: T13, NEK2 (Homo sapiens, UniProt P51955); test: DSF thermal shift assay; assay type: binding; conditions: read-out: ΔTm
T13 construct: purchased in-house DSF (thermal shift) panel per Fedorov et al
Protocol: as §1

[14] = biological target: T14, OSR1 (Homo sapiens, UniProt O95747); test: DSF thermal shift assay; assay type: binding; conditions: read-out: ΔTm
T14 construct: purchased in-house DSF (thermal shift) panel per Fedorov et al
Protocol: as §1

[15] = biological target: T15, EPHA7 (Homo sapiens, UniProt Q15375); test: DSF thermal shift assay; assay type: binding; conditions: read-out: ΔTm
T15 construct: purchased in-house DSF (thermal shift) panel per Fedorov et al
Protocol: as §1

[16] = biological target: T16, MAPK6 (Homo sapiens, UniProt Q16659); test: DSF thermal shift assay; assay type: binding; conditions: read-out: ΔTm
T16 construct: purchased in-house DSF (thermal shift) panel per Fedorov et al
T16 sequence (Q16659 whole entry): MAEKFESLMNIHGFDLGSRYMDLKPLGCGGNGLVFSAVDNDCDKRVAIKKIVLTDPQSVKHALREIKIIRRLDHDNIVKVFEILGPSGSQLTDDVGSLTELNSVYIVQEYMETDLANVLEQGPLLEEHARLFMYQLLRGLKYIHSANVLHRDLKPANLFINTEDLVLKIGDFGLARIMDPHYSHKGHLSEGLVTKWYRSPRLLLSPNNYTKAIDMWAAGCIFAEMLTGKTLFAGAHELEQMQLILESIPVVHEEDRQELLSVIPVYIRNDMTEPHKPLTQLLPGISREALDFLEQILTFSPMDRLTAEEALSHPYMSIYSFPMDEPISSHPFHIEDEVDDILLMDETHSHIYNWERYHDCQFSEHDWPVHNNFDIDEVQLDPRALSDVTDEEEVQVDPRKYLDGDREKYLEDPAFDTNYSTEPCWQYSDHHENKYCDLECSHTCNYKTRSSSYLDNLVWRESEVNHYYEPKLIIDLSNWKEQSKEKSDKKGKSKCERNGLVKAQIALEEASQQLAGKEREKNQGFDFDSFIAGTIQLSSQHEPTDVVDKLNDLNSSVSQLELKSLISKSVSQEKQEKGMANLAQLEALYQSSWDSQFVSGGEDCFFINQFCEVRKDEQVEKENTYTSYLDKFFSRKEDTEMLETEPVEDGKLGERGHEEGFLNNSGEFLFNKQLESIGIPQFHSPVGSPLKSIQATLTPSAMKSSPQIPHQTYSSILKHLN
Protocol: as §1

[17] = biological target: T17, CDC42BPA (Homo sapiens, UniProt Q5VT25); test: DSF thermal shift assay; assay type: binding; conditions: read-out: ΔTm
T17 construct: purchased in-house DSF (thermal shift) panel per Fedorov et al
Protocol: as §1

[18] = biological target: T18, EPHB3 (Homo sapiens, UniProt P54753); test: DSF thermal shift assay; assay type: binding; conditions: read-out: ΔTm
T18 construct: purchased in-house DSF (thermal shift) panel per Fedorov et al
T18 sequence (P54753 34-998): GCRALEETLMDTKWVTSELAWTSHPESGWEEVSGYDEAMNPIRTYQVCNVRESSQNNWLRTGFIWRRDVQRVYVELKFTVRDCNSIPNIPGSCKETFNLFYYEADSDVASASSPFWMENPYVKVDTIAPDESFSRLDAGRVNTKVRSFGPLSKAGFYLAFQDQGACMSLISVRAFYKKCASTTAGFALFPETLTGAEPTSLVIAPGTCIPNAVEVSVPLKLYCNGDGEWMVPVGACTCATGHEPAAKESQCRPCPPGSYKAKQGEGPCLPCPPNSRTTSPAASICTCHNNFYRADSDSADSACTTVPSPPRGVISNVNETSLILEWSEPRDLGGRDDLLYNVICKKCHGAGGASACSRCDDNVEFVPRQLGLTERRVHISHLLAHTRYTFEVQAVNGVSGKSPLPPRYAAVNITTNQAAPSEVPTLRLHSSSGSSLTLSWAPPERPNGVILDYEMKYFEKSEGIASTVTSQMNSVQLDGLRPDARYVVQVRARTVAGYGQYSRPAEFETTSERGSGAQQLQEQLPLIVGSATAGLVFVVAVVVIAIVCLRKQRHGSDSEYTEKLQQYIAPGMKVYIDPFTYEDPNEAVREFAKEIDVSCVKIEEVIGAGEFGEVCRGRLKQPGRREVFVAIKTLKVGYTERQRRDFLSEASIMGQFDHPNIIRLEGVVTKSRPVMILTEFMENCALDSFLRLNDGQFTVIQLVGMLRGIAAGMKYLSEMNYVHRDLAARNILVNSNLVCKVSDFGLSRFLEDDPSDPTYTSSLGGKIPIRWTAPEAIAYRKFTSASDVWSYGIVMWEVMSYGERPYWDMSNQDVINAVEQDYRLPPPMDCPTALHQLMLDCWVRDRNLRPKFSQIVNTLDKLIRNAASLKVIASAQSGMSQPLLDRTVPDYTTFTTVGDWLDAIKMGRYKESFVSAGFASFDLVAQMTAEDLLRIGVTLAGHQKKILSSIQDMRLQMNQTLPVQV
Protocol: as §1

[19] = biological target: T19, RPS6K5 (Homo sapiens, UniProt O75582); test: DSF thermal shift assay; assay type: binding; conditions: read-out: ΔTm
T19 construct: purchased in-house DSF (thermal shift) panel per Fedorov et al
Protocol: as §1

[20] = biological target: T20, SLK (Homo sapiens, UniProt Q9H2G2); test: DSF thermal shift assay; assay type: binding; conditions: read-out: ΔTm
T20 construct: purchased in-house DSF (thermal shift) panel per Fedorov et al
Protocol: as §1

[21] = biological target: T21, MERTK (Homo sapiens, UniProt Q12866); test: DSF thermal shift assay; assay type: binding; conditions: read-out: ΔTm
T21 construct: purchased in-house DSF (thermal shift) panel per Fedorov et al
T21 sequence (Q12866 21-999): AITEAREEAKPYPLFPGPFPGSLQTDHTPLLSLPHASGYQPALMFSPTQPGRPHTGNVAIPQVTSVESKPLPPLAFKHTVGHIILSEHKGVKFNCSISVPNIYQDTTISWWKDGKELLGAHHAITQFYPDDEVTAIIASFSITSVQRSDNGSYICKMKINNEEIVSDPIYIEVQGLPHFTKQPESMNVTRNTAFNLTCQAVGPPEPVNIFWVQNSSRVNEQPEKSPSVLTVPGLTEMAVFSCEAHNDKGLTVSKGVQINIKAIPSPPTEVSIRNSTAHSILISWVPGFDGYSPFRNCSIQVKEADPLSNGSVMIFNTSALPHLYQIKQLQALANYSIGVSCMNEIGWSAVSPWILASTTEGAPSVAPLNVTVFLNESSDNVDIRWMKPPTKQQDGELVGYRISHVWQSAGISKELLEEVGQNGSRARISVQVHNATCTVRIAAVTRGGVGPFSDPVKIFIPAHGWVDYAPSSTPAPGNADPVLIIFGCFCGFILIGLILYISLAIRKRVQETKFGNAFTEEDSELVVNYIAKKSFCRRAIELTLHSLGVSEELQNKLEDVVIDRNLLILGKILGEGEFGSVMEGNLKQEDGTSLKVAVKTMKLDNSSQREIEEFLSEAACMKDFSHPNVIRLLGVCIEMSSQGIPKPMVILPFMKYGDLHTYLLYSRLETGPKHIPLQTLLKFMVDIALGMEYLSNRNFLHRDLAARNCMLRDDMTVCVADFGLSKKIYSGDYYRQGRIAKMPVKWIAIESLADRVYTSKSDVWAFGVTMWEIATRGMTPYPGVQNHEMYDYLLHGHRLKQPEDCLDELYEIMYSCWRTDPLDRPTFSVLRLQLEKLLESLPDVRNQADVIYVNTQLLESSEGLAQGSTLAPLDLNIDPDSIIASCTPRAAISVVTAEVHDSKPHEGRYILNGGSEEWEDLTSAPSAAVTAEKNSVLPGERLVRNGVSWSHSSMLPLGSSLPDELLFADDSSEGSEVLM
Protocol: as §1

[22] = system: S6K2; design: method as in PMID 20704563; conditions: cited from earlier work
[23] = system: S6K1; conditions: cited from earlier work
[24] = Glutathione (GSH) stability assay (HPLC); conditions: glutathione (GSH, 5 mM) in MeCN/PBS buffer
Protocol: The reaction temperature was chosen to be 40 °C.
Glutathione (GSH) Stability Assay
• 0 min: 40% MeOH, 60% phosphate buffer pH 2.3;
• 20 min: 85% MeOH, 15% phosphate buffer pH 2.3;
• 9 min: 95% MeOH, 5% phosphate buffer pH 2.3;
• 10 min: 95% MeOH, 5% phosphate buffer pH 2.3;

pIC50 [1]: < 5.30
SMILES: CCc1cnc(Nc2ncccc2[N+](=O)[O-])nc1N1CCN(Cc2nc3cc(C(F)(F)F)ccc3[nH]2)CC1 [Compound 21]

SMILES: CN[C@@H]1C[C@H]2O[C@@](C)([C@@H]1OC)n1c3ccccc3c3c4c(c5c6ccccc6n2c5c31)C(=O)NC4 [Staurosporine, reference compound]
ΔTm at 10 µM [2]: 24.4 °C
ΔTm at 10 µM [3]: 8.9 °C
ΔTm at 10 µM [4]: 7.4 °C
ΔTm at 10 µM [5]: 14.8 °C
ΔTm at 10 µM [6]: 6.2 °C
ΔTm at 10 µM [7]: 25.1 °C
ΔTm at 10 µM [8]: 9.6 °C
ΔTm at 10 µM [9]: 6.3 °C
ΔTm at 10 µM [10]: 1.4 °C
ΔTm at 10 µM [11]: 9.3 °C
ΔTm at 10 µM [12]: 19 °C
ΔTm at 10 µM [13]: 2.2 °C
ΔTm at 10 µM [14]: 7.6 °C
ΔTm at 10 µM [15]: 12.7 °C
ΔTm at 10 µM [16]: 1 °C
ΔTm at 10 µM [17]: 2.2 °C
ΔTm at 10 µM [18]: 6.7 °C
ΔTm at 10 µM [19]: 15 °C
ΔTm at 10 µM [20]: 20.8 °C
ΔTm at 10 µM [21]: 5.9 °C

SMILES: CCc1cncnc1N1CCN(Cc2nc3ccc(C(F)(F)F)cc3[nH]2)CC1 [PF-4708671]
pIC50 [22]: 4.19
pIC50 [23]: 6.80
pKi [23]: 7.70

half-life at […] [24]: 5 h
SMILES: CN(C)C/C=C/C(=O)Nc1cc2c(Nc3ccc(F)c(Cl)c3)ncnc2cc1O[C@H]1CCOC1 [Afatinib]
